Data on one compound can be found in ChEMBL document CHEMBL3638950, “Imidazo[5,1-f][1,2,4]triazines for the treatment of neurological disorders” (2013).

The target of the assay is cGMP-dependent 3',5'-cyclic phosphodiesterase (Homo sapiens, UniProt O00408). As to the kind of experiment: Inhibition Assay: The activity of the test substances on human full-length PDE2A3 enzyme was determined using the [3H]-cGMP scintillation proximity assay (SPA) modified from the Amersham TRKQ7100 instructions (GE Healthcare, USA).
Sequence of cGMP-dependent 3',5'-cyclic phosphodiesterase (O00408 whole entry): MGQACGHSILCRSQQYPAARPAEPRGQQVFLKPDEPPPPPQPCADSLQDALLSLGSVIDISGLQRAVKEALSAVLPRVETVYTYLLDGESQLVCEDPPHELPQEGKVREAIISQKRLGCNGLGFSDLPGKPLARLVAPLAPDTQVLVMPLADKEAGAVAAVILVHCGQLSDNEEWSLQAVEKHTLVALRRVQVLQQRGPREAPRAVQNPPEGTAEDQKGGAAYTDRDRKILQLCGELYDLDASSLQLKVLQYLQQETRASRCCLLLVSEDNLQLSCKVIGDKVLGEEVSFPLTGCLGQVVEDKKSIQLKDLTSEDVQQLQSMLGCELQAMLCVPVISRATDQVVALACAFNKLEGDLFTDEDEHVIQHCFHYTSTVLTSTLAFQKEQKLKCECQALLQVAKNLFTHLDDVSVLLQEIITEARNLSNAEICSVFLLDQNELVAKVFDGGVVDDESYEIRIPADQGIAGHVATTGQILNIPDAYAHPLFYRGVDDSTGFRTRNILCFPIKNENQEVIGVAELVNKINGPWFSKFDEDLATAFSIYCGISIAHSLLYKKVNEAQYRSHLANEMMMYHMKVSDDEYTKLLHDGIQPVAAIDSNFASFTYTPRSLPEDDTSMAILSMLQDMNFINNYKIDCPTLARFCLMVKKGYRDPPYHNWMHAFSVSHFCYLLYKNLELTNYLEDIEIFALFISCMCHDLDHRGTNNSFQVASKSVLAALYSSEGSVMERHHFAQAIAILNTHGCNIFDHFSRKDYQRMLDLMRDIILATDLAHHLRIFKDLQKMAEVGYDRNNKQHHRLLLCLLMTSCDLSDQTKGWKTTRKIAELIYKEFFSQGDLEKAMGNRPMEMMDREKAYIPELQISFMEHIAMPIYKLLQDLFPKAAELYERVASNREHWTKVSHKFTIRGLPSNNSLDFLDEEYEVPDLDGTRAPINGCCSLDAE

Each structure is given as a SMILES string.

Compound `Cc1nc(-c2cnn(C)c2-c2ccc(C(F)(F)F)cc2)c2c(N3CC(F)C3)ncnn12` displayed an IC50 of 0.633 nM.
